Data reported in US20240382497A1, “PROPHYLACTIC OR THERAPEUTIC AGENT FOR HYPOXIC INJURY, ISCHAEMIA-REPERFUSION INJURY AND INFLAMMATION, CELL PROTECTION AGENT FOR TRANSPLANTATION, AND BIO-PRESERVATION AGENT” (priority 2018, published 2024).

Experiments:
C57/BL6N male mice = experiment: Oxygen consumption on odor presentation; format: in vivo, mouse; conditions: filter paper scented with 100 μl (104 mmol) odor, versus saline
Procedure: An influence of a thiazoline-related compound on the oxygen consumption was analyzed. The oxygen consumption was analyzed using an energy metabolism measurement device for small animals (ARCO-2000; ARCO SYSTEM). About 3-month-old C57/BL6N male mice were each placed in a measuring chamber and, after acclimation for about 2 hr, a thiazoline-related compound (2MT) was presented. The odors were presented by placing filter papers scented with 100 μl (104 mmol) of odor molecules in the measuring chamber. As a control, an experiment in which a filter paper dropped with saline was presented to the mice was also performed. The oxygen consumption was measured every one min. Mean oxygen consumption was calculated as the mean of 10 min before presenting odor and 20 min after presenting odor.

Male C57/BL6N mice [1] = experiment: Skin blood flow on odor presentation (laser Doppler); format: in vivo, mouse; conditions: filter paper scented with 271 μmol odor, 20 min, versus no odor
Procedure: An influence of a thiazoline-related compound and an odor molecule that induces learned fear on the skin blood flow was analyzed. Male C57/BL6N mice (about 3 months old) were anesthetized with pentobarbital (50 mg/kg, i.p.) about 5 days before the test, and the back hair was depilated with depilatory cream. A mouse restrainer having an observation window was prepared using a 50 ml tube, the mice were trained to enter the restrainer from the day after hair removal, and acclimated by performing this operation until the day before the test. On the day of testing, each mouse was placed in a restrainer, and a laser Doppler probe was attached to the shaved back of the mouse with an adhesive tape. After confirming that the blood flow signal became stable, (1) no odor was presented for 10 min, (2) Eugenol odor was presented for 10 min, (3) thiazoline-related compound (2MT) or an odor that induces learned fear (Anis-FS+) was presented for 20 min, and changes in the blood flow were measured. […] The blood flow rate was measured every 10 seconds using a laser Doppler blood flow meter (ADVANCE CO., LTD. ALF21D). The mean skin blood flow without odor (10 min) or with the presentation of a thiazoline-related compound or an odor that induces learned fear (20 min) was calculated, and the mean skin blood flow was shown as a relative value with the mean skin blood flow without odor as 100%.

[2] = test system: High Mobility Group Box 1 (HMGB1); experiment: Blood HMGB1 in LPS sepsis model (ELISA); format: in vivo, mouse; conditions: about 80 mg/kg i.p., 16 hr, versus saline
Procedure: (§1) Lipopolysaccharide (LPS) (0.6 mg/kg) was intraperitoneally administered to male Balb/c mice (about 2-3 months old) to generate a sepsis model. Immediately after the LPS administration, 200 μl (about 80 mg/kg) of a solution prepared by diluting various heterocyclic compounds and isothiocyanate compounds 100 times with saline was intraperitoneally administered. Blood samples were collected 60 min after LPS and compound administration, EDTA plasma was prepared, and the blood level of inflammatory cytokine TNF-a was measured by the ELISA method.
A sepsis model mouse was prepared by the same method as in Example 18. Immediately after the LPS administration, 200 μl (about 80 mg/kg) of a thiazoline-related compound (2MT) solution prepared by diluting 100 times with saline was intraperitoneally administered. Blood samples were collected 16 hr after administration of LPS and thiazoline-related compound (2MT), EDTA plasma was prepared, and the blood level of inflammatory mediator High Mobility Group Box 1 (HMGB1) was measured by the ELISA method.

Male C57/BL6N mice [3] = experiment: Core body temperature on odor presentation (radio-telemetry); format: in vivo, mouse; conditions: filter paper scented with 271 μmol odor, 20 min, versus no odor
Procedure: An influence of a thiazoline-related compound and an odor molecule that induces learned fear on the core body temperature was analyzed. A radio-telemetry device for monitoring biological parameters (manufactured by Physiotel) was surgically implanted in the abdomen of male C57/BL6N mice (about 3 months old). The mice were subjected to the following experiment after about 10 days of recovery period. Each mouse was placed in a test cage and, after acclimation for 10 min, a filter paper dropped with water was presented for 10 min, after which a filter paper scented with 271 μmol of a thiazoline-related compound (2-methyl-2-thiazoline; 2MT) or an odor molecule that induces learned fear (anisole) was presented for 20 min. The information of body temperature was recorded every 10 sec using Dataquest A.R.T. software (DataScience international). The value of the core body temperature change was calculated as the difference between the mean core body temperature for 10 min when water was presented and the mean core body temperature for 20 min when each odor molecule was presented, and the change in the core body temperature without odor was set to 0. The mice presented with the odor that induces learned fear were trained to associate the anisole odor with electric shock one day before the measurement, whereby the mice learned to feel learned fear against the smell of anisole.

[4] = test system: cerebral ischemia-reperfusion injury model mouse; experiment: Cerebral ischemia-reperfusion injury, MAP2-unstained area; format: in vivo; conditions: about 80 mg/kg i.p. at the reperfusion, two days after reperfusion, versus saline
Procedure: The bilateral common carotid arteries of about 3-month-old C57/BL6 mouse were ligated by clips to induce cerebral ischemia injury, and the blood was reperfused by removing the clips 30 min later. A thiazoline-related compound (2MT) solution (200 μl, about 80 mg/kg), or saline, as a control, was intraperitoneally administered at the reperfusion. Two days after the reperfusion, the brain tissue of the mouse was removed, brain sections were prepared, and the injured region was analyzed by antibody staining with Microtubule-associated protein 2 (MAP2).

sepsis model mouse = experiment: Survival time in LPS sepsis model; format: in vivo; conditions: about 80 mg/kg i.p., versus saline
Procedure: as §1
A sepsis model mouse was prepared by the same method as in Example 18. Immediately after the LPS administration, 200 μl (about 80 mg/kg) of a thiazoline-related compound (2MT) solution prepared by diluting 100 times with saline was intraperitoneally administered. The survival time of the mouse was measured when the thiazoline-related compound (2MT) was administered and when saline, as a control, was administered (saline).

Male C57/BL6N mice [5] = experiment: Heart rate on odor presentation (radio-telemetry); format: in vivo, mouse; conditions: filter paper scented with 271 μmol odor
Procedure: An influence of a thiazoline-related compound and an odor molecule that induces learned fear on the heart rate was analyzed. A radio-telemetry device for monitoring biological parameters (manufactured by Physiotel) was surgically implanted in the abdomen of male C57/BL6N mice (about 3 months old). The mice were subjected to the following experiment after about 10 days of recovery period. Each mouse was placed in a test cage and, after acclimation for 10 min, a filter paper dropped with water was presented for 10 min, after which a filter paper scented with 271μmol of a thiazoline-related compound (2-methyl-2-thiazoline; 2MT) or an odor molecule that induces learned fear (anisole) was presented for 20 min. The information of heart rate was recorded every 10 sec using Dataquest A.R.T. software (DataScience international). The value of the heart rate change was calculated as the difference between the heart rate for 10 min when water was presented and the mean heart rate for 20 min when each odor molecule was presented, and the change in the heart rate without odor was set to 0. The mice presented with the odor that induces learned fear were trained to associate the anisole odor with electric shock one day before the measurement, whereby the mice learned to feel learned fear against the smell of anisole.

Compound: CC1=NCCS1 [2MT, 2-methyl-2-thiazoline]
- oxygen consumption per body weight (C57/BL6N male mice): decreased remarkably
- skin blood flow (Male C57/BL6N mice [1]): decreased the skin blood flow
- blood concentration of HMGB1 [2]: decreased the blood concentration of inflammatory mediator HMGB1
- changes in the core body temperature (Male C57/BL6N mice [3]): clear decrease in the core body temperature
- area of the injured region of the brain (not stained with MAP2) [4]: reduce cerebral ischemia-reperfusion injury
- survival time in sepsis model (sepsis model mouse): extending the survival time
- time to decrease in the heart rate to half (Male C57/BL6N mice [5]): ≤ 3 min
- changes in the heart rate (Male C57/BL6N mice [5]; 20 min, versus no odor): clear decrease in the heart rate
